Source: patent publication US12516286B2, “Method for producing dopaminergic neuron progenitor cell” (KYOTO UNIVERSITY, priority 2016, dated 2026)

How the values were obtained:
QHJ-I01 human iPS cell = test: Corin-positive ratio by flow cytometry with anti-Corin antibody on Day 12 after preconditioning of iPS cells in medium for maintaining undifferentiated state; type: cell-based; conditions: for Corin-positive ratio as compared with the control: summary of Table 1
Method: QHJ-I01, which is a human iPS cell, has been produced by introducing of Oct3/4, Sox2, KIf4, L-MYC, LIN28, and a dominant-negative form of p53 (Okita, K., et al., Stem Cells, 31, 458-66 (2013); WO2013/176233) into human PBMC by an episomal vector. The cells were received from Professor Yamanaka of Kyoto University, et al.
The iPS cells were cultured according to the method described by Miyazaki T, et al., Nat Commun. 3: 1236, 2012. Specifically, maintenance culture was performed in a medium for maintaining undifferentiated state containing FGF2 (bFGF) on a 6-well plate coated with Laminin-511 E8.
24 hours before the start of differentiation induction by exchange with a differentiation medium, the medium was exchanged with StemFit AK03N (Ajinomoto Healthy Supply Co., Inc.), which was a medium for maintaining undifferentiated state containing SAG (Enzo Life Sciences, Inc., 300 nM), an SHH signal stimulant, to obtain a cell population comprising iPS cells.
The cell population comprising iPS cells after culturing for 24 hours in the presence of SAG as described above was dissociated using TrypLE CTS (Life Technologies), and the cells were inoculated on a 6-well plate coated with Laminin-511 E8 (iMatrix-511, Nippi, Inc.) prepared separately, in an amount of 5×10^6 cells per well. The medium was replaced with a differentiation medium [a basal medium A [GMEM (Invitrogen) supplemented with 8% KSR (Invitrogen), 1 mM Sodium pyruvate (Invitrogen), 0.1 mM MEM nonessential amino acid (Invitrogen), and 0.1 mM 2-Mercaptoethanol (WAKO)] containing 10 μM Y-27632 (WAKO), 0.1 μM LDN 193189 (Stemgent, Inc.), and 0.5 μM A83-01 (WAKO)]. On the next day (Day 1), the medium was replaced with Basal Medium A supplemented with 0.1 μM LDN193189, 0.5 μM A83-01, 2 μM Purmorphamine (WAKO), and 100 ng/mL FGF8 (WAKO). Two days later (Day 3), the medium was replaced with Basal Medium A supplemented with 0.1 μM LDN193189, 0.5 μM A83-01, 2 μM Purmorphamine, 100 ng/mL FGF8, and 3 μM CHIR99021 (WAKO). Four days later (Day 7), the medium was replaced with Basal Medium A supplemented with 0.1 μM LDN193189 and 3 μM CHIR99021. During the above period, the medium was replaced once a day. A flow cytometry analysis using an anti-Corin antibody was performed on the 12th day of the start of differentiation induction (Day 12) (FIG. 1).
An anti-Corin antibody was prepared by the following method. First, from the Corin gene of Macaca fascicularis, a gene sequence encoding a part of the extracellular domain (79th-453rd amino acids) was introduced into 293E cells, and the cells were then allowed to express the extracellular-domain fragment of Corin protein, followed by collecting the protein. Mice were immunized with the recovered protein, and lymphocytes were then extracted and fused with myeloma cells. From the cell population after the fusion, a clone having reactivity with Corin was selected. The culture supernatant of the clone was used after attaching a fluorescent label as the anti-Corin monoclonal antibody.
Five days after the culture in Basal Medium A supplemented with 0.1 μM of LDN193189 and 3 μM CHIR99021, namely on the 12th day of the start of differentiation induction (Day 12), the cells were dissociated using TrypLE CTS, and suspended in Ca^2+Mg^2+-free HBSS (Invitrogen) supplemented with 2% FBS, 10 μM Y-27632 (WAKO), 20 mM D-glucose, and 50 μg/mL penicillin/streptomycin. The anti-Corin antibody was added to the suspension, and the resulting mixture was incubated at 4° C. for 20 minutes, the cells were sorted using FACS (BD) to collect Corin-positive cells, and the cell number was counted.
Similar to Example 1, experiments in which the concentration of SAG added was changed, and experiments in which A83-01 or LDN 193189 was added at the same time with SAG, were conducted, and the Corin-positive ratio were measured.

LPF 11 human iPS cell = test: Corin-positive ratio on Day 12, iPS cells generated by another method; type: cell-based; conditions: SAG 300 nM preconditioning vs absence of SAG, FIG. 4
Description: LPF 11, a human iPS cell, has been established by introducing Oct3/4, Sox2, KIf4, and L-MYC into human PBMC by a Sendai virus vector (Cytotune 2.0 L, produced by ID Pharma Co., Ltd.), and culturing the same by the method according to the protocol published by Kyoto University (Establishment, maintenance culture of human iPS cells; CiRA Ff-iPSC_protocol_JP_v140310, //www.cira.kyoto-u.ac.jp/j/research/protocol.html) using StemFit medium (produced by Ajinomoto Healthy Supply Co., Inc. Inc.), and Laminin-511 E8 (produced by Nippi, Inc.).
Using this iPS cell, culturing and differentiation induction were carried out in the same manner as in Example 1 and the percentage of the number of Corin-positive cells with respect to the total cell number was measured on the 12th day (Day 12) using an anti-Corin antibody.

[1] = tested on: model rat of Parkinson's disease (6-OHDA uni-laterally administered rat); test: Cell transplantation into striatum of Parkinson's disease model rat, graft staining with TH and HuNu after 4 weeks; type: in vivo; conditions: for TH-ratio with respect to HuNu-positive cells as 100%: graft of cells cultured in the presence of SAG (300 nM)
Method: In this case, the medium was replaced in half every 3 days.
A plurality of cell aggregates containing 4×10^5 cells obtained as described above were suspended in 2 μL of physiological saline, and injected into the striatum of a model rat of Parkinson's disease (6-OHDA uni-laterally administered rat) using a 22 gauge injection needle, and the appearance of the graft after 4 weeks was observed (FIG. 5).

Structure (SMILES)	Corin-Positive Rate (%) (QHJ-I01 human iPS cell; A83-01 (500 nM) alone)	Corin-positive ratio as compared with the control (QHJ-I01 human iPS cell)	percentage of Corin-positive cells (LPF 11 human iPS cell)	ratio of the number of TH-positive cells to the number of HuNu-positive cells, SAG-treated cell graft vs non-treated cell graft ([1]; 4 weeks after grafting)	TH-ratio with respect to HuNu-positive cells as 100% ([1]; 4 weeks)	TH-ratio with respect to HuNu-positive cells as 100% ([1]; 4 weeks after grafting, average)	TH-ratio with respect to HuNu-positive cells as 100% ([1]; 4 weeks, individual (2))	percentage of Corin-positive cells (QHJ-I01 human iPS cell; SAG 300 nM for 24 hours before differentiation induction vs absence of SAG, FIG. 2)	Corin-Positive Rate (%) (QHJ-I01 human iPS cell; SAG (10 nM) added to medium for maintaining undifferentiated state before differentiation induction)	Corin-Positive Rate (%) (QHJ-I01 human iPS cell; SAG (300 nM))	Corin-Positive Rate (%) (QHJ-I01 human iPS cell; LDN193189 (100 nM) alone)
Cc1cccc(-c2nn(C(=S)Nc3ccccc3)cc2-c2ccnc3ccccc23)n1 [A83-01, 3-(6-methyl-2-pyridinyl)-N-phenyl-4-(4-quinolinyl)-1H-pyrazole-1-carbothioamide]	12.4%	no effect									
CNC1CCC(N(Cc2cccc(-c3ccncc3)c2)C(=O)c2sc3ccccc3c2Cl)CC1 (stereo not shown) [SAG]		improves depending on the concentration of SAG added	increased	no difference	6.1%	9.24%	12.37%	increased	22.7%	32.1%	
c1ccc2c(-c3cnn4cc(-c5ccc(N6CCNCC6)cc5)cnc34)ccnc2c1 [LDN193189]		no effect									12.6%
